# Test results: publication PMC6199744, “Development of Chemical Proteomics for the Folateome and Analysis of the Kinetoplastid Folateome” (ACS Infectious Diseases, 2018)
# Where two headings read alike, the source gives them in different places.
# Columns and labels:
# Format in all cases: binding
# [1] = target: T1, HeLa cell extract proteins (Homo sapiens, UniProt P00390); details: protein GSR; HeLa
# T1 construct: endogenous in cells; host or cells: HeLa cell extract
# T1 sequence (P00390 44-522): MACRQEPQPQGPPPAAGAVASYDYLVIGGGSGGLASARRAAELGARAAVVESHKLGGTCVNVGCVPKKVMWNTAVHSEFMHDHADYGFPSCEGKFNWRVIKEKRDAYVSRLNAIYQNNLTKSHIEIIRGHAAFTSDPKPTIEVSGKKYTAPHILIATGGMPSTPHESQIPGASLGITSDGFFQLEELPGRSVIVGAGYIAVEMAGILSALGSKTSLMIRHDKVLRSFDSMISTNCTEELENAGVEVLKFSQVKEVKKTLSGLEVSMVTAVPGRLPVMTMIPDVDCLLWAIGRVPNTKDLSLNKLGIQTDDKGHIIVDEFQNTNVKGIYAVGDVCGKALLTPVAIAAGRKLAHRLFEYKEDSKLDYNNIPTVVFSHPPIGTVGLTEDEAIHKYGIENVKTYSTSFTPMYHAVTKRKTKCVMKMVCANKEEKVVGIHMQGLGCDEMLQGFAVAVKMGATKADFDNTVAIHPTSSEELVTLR
# [2] = target: T2, HeLa cell extract proteins (Homo sapiens, UniProt Q8WUX1); details: HeLa; protein SLC38A5
# T2 construct: endogenous in cells; host or cells: HeLa cell extract
# T2 sequence (Q8WUX1 whole entry): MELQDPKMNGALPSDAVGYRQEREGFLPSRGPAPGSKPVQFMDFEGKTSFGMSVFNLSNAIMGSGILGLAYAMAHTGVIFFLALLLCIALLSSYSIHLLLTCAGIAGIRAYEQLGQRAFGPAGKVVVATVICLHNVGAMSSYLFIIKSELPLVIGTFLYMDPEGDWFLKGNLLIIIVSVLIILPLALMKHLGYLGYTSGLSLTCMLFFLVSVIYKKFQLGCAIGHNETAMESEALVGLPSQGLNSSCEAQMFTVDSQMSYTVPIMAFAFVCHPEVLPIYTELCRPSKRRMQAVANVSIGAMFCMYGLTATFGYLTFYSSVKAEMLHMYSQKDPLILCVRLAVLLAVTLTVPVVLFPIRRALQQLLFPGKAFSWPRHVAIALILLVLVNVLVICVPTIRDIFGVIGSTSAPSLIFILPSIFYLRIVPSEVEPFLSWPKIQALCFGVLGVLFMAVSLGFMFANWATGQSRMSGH
# [3] = target: T3, HeLa cell extract proteins (Homo sapiens, UniProt O43615); details: protein TIMM44; HeLa
# T3 construct: endogenous in cells; host or cells: HeLa cell extract
# T3 sequence (O43615 1-452): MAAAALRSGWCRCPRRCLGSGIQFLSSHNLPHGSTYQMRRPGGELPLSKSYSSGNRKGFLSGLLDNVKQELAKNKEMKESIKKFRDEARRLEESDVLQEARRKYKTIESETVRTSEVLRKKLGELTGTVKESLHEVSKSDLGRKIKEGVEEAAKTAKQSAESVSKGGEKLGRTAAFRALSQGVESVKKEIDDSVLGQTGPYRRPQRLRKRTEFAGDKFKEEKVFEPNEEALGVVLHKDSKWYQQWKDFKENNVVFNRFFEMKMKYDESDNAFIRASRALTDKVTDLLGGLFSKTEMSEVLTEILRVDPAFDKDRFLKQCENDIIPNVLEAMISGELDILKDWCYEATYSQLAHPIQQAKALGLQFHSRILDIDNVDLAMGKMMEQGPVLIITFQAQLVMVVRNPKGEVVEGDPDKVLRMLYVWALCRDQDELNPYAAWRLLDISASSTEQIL
# [4] = target: T4, HeLa cell extract proteins (Homo sapiens, UniProt P48556); details: captured protein PSMD8; HeLa
# T4 construct: endogenous in cells; host or cells: HeLa cell extract
# T4 sequence (P48556 1-350): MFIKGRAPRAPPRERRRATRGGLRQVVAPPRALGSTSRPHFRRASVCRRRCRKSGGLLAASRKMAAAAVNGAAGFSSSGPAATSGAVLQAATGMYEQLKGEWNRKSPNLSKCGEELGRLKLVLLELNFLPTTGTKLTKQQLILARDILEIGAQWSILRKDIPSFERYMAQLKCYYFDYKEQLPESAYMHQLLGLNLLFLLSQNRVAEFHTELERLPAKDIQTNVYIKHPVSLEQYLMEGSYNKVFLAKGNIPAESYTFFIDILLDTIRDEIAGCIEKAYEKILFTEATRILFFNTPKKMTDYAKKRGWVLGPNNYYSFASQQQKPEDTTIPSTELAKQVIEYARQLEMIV
# [5] = target: T5, HeLa cell extract proteins (Homo sapiens, UniProt P50748); details: HeLa; protein KNTC1
# T5 construct: endogenous in cells; host or cells: HeLa cell extract
# T5 sequence (P50748 whole entry): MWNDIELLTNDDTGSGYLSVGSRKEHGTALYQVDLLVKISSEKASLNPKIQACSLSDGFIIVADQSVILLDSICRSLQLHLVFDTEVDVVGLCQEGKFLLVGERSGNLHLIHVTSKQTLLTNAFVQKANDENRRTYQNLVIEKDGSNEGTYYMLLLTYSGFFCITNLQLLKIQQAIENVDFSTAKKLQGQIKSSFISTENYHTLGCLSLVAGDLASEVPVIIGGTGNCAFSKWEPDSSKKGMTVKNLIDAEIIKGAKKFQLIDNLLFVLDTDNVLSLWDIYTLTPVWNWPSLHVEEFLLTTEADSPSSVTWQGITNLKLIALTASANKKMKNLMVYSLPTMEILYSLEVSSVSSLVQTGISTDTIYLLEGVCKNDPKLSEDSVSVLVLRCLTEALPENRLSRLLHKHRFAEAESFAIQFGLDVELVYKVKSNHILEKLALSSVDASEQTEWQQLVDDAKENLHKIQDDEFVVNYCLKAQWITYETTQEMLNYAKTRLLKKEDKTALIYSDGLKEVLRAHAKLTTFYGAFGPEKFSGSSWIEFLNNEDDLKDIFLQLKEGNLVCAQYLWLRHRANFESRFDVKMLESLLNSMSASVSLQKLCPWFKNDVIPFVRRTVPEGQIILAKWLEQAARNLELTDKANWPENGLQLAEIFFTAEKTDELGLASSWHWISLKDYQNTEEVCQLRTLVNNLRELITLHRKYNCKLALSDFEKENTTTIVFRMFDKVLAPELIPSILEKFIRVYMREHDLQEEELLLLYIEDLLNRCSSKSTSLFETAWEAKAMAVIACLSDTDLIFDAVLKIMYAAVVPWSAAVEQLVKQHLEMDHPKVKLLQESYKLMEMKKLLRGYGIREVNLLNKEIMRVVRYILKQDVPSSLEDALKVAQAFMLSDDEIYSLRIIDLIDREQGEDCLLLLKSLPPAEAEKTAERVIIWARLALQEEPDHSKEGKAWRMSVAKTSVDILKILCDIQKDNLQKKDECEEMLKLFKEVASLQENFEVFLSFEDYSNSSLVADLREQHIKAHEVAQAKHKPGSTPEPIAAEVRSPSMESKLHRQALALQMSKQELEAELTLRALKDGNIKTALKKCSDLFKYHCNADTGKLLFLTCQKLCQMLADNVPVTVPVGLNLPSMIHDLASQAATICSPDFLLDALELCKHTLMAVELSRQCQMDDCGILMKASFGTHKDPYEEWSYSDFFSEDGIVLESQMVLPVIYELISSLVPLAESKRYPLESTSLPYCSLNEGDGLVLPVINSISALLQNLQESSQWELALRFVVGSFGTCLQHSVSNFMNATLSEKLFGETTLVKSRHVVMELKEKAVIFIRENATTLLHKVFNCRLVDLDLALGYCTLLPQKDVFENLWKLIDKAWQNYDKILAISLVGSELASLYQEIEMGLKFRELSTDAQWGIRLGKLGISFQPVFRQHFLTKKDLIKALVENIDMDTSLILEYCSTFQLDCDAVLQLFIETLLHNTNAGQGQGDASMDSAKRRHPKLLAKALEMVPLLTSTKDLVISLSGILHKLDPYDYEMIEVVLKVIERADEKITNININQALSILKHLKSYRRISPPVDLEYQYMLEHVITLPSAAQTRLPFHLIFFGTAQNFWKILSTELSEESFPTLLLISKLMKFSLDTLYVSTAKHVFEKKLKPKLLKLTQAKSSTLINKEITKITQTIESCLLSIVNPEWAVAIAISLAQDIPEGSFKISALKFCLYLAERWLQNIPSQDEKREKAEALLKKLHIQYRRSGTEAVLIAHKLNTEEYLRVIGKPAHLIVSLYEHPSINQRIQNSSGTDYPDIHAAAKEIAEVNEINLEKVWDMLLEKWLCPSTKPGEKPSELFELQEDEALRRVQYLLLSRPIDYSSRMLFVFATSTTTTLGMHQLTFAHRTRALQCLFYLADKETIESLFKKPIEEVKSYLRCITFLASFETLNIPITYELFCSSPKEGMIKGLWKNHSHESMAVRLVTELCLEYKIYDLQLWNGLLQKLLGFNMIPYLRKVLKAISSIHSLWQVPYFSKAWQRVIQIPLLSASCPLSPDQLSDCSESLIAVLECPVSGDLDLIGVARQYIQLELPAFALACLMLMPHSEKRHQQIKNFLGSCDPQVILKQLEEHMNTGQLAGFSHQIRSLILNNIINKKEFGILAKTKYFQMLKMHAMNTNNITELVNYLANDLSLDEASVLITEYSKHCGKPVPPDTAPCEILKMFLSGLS
# [6] = target: T6, HeLa cell extract proteins (Homo sapiens, UniProt P13804)
# T6 construct: endogenous in cells; host or cells: HeLa cell extract
# T6 sequence (P13804 20-333): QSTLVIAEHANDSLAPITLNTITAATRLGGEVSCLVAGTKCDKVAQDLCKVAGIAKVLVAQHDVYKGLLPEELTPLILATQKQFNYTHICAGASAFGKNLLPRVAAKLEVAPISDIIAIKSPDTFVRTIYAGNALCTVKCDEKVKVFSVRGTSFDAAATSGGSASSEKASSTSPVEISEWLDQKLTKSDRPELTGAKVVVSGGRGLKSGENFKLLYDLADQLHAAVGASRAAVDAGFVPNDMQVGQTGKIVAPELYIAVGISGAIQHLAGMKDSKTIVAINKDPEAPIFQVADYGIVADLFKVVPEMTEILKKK
# [7] = target: T7, HeLa cell extract proteins (Homo sapiens, UniProt P18074)
# T7 construct: endogenous in cells; host or cells: HeLa cell extract
# T7 sequence (P18074 1-760): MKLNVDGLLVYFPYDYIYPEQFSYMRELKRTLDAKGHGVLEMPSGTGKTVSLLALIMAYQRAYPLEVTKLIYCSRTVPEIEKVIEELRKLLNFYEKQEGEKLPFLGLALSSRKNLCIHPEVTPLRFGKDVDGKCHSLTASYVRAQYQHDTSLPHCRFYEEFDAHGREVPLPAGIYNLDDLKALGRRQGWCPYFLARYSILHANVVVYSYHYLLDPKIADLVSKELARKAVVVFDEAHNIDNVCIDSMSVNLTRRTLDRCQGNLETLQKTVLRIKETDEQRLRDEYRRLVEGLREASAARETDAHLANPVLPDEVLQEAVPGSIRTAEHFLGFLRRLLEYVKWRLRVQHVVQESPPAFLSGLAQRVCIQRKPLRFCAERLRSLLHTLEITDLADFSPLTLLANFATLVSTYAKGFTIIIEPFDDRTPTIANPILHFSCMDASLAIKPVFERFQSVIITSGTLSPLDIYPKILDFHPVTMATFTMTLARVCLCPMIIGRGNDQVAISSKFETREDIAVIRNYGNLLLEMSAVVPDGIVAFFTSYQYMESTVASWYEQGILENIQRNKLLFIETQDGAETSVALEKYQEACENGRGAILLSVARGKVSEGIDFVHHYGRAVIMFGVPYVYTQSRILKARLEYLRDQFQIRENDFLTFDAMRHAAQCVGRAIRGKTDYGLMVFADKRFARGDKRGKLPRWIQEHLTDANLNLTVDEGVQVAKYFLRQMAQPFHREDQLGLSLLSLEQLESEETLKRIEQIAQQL
compound,measurement,setting,value
Nc1nc2cccc(-c3ccccc3)c2n1Cc1ccc(Cl)c(Cl)c1 [compound 3],fold changes relative to vehicle control,[1],1
same,fold changes relative to vehicle control,[2],0.95
same,fold changes relative to vehicle control,[3],1.03
same,fold changes relative to vehicle control,[4],0.78
same,fold changes relative to vehicle control,[5],1.17
"Nc1nc2[nH]cc(CCc3ccc(C(=O)N[C@@H](CCC(=O)O)C(=O)O)cc3)c2c(=O)[nH]1 [PTX, pemetrexed]",fold changes relative to vehicle control,[6],0.73
same,fold changes relative to vehicle control,[7],0.98
"Nc1nc2c(c(=O)[nH]1)N(C=O)C(CNc1ccc(C(=O)N[C@@H](CCC(=O)O)C(=O)O)cc1)CN2 (some centres unmarked) [LEU, leucovorin]",fold changes relative to vehicle control,"[6]; protein ETFA, HeLa",0.77
same,fold changes relative to vehicle control,"[7]; HeLa, captured protein ERCC2",1.14
CCCCCCOc1cccc(Cc2cnc(N)nc2N)c1 [compound 2],fold changes relative to vehicle control,[1],1.15
same,fold changes relative to vehicle control,[2],1.14
same,fold changes relative to vehicle control,[3],1.29
same,fold changes relative to vehicle control,[4],1.08
same,fold changes relative to vehicle control,[5],1.13
NCCOCCOCC(=O)Nc1nc2ncc(CNc3ccc(C(=O)NC(CCC(=O)O)C(=O)O)cc3)nc2c(=O)[nH]1 (centres unmarked) [compound 6],fold changes relative to vehicle control,"[6]; protein ETFA, HeLa",0.9
same,fold changes relative to vehicle control,"[7]; HeLa, captured protein ERCC2",0.98
CCCCCCOc1ccc(Cc2cnc(N)nc2N)cc1 [compound 1],fold changes relative to vehicle control,[1],0.94
same,fold changes relative to vehicle control,[2],0.91
same,fold changes relative to vehicle control,[3],1.06
same,fold changes relative to vehicle control,[4],0.89
same,fold changes relative to vehicle control,[5],1.15
NCCCNc1ccc(C(=O)NC(CCC(=O)O)C(=O)O)cc1 (centres unmarked) [compound 7],fold changes relative to vehicle control,"[6]; protein ETFA, HeLa",0.87
same,fold changes relative to vehicle control,"[7]; HeLa, captured protein ERCC2",1
